{
  "source": "ChEMBL document CHEMBL5620371",
  "about": "“Transient receptor potential ankyrin 1 (TRPA1) modulators: Recent update and future perspective” (Eur J Med Chem, 2023)",
  "key": {"[1]": {"target": "T1, Transient receptor potential cation channel subfamily V member 1 (Homo sapiens, UniProt Q8NER1)", "T1 sequence (Q8NER1 whole entry)": "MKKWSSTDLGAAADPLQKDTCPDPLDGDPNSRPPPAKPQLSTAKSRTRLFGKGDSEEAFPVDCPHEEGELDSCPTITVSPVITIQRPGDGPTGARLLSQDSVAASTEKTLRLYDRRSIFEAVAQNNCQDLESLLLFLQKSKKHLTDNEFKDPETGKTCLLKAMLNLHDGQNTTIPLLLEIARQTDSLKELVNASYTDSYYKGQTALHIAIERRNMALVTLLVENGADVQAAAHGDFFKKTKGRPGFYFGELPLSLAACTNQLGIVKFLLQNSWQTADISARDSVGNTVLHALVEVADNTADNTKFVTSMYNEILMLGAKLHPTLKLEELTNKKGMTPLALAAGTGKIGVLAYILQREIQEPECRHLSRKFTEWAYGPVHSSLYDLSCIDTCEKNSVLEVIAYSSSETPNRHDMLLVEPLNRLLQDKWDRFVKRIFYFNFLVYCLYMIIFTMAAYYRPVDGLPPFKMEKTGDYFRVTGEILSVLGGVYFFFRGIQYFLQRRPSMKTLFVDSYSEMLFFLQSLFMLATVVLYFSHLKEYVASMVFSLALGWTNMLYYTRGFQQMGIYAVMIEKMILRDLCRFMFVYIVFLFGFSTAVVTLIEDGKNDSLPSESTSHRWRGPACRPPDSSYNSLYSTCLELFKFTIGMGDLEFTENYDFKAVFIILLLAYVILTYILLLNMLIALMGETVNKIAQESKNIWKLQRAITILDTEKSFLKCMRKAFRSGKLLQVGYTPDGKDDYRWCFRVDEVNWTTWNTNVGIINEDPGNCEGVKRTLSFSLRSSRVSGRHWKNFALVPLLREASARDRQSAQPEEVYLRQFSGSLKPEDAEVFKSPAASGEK", "assay": "Agonist activity at human recombinant TRPV1 over expressed in HEK293 cells assessed as increase in intracellular calcium level by measuring efficacy by Fluo4-AM based assay", "format": "cell-based"}, "[2]": {"target": "T2, Transient receptor potential cation channel subfamily A member 1 (Homo sapiens, UniProt O75762)", "T2 sequence (O75762 whole entry)": "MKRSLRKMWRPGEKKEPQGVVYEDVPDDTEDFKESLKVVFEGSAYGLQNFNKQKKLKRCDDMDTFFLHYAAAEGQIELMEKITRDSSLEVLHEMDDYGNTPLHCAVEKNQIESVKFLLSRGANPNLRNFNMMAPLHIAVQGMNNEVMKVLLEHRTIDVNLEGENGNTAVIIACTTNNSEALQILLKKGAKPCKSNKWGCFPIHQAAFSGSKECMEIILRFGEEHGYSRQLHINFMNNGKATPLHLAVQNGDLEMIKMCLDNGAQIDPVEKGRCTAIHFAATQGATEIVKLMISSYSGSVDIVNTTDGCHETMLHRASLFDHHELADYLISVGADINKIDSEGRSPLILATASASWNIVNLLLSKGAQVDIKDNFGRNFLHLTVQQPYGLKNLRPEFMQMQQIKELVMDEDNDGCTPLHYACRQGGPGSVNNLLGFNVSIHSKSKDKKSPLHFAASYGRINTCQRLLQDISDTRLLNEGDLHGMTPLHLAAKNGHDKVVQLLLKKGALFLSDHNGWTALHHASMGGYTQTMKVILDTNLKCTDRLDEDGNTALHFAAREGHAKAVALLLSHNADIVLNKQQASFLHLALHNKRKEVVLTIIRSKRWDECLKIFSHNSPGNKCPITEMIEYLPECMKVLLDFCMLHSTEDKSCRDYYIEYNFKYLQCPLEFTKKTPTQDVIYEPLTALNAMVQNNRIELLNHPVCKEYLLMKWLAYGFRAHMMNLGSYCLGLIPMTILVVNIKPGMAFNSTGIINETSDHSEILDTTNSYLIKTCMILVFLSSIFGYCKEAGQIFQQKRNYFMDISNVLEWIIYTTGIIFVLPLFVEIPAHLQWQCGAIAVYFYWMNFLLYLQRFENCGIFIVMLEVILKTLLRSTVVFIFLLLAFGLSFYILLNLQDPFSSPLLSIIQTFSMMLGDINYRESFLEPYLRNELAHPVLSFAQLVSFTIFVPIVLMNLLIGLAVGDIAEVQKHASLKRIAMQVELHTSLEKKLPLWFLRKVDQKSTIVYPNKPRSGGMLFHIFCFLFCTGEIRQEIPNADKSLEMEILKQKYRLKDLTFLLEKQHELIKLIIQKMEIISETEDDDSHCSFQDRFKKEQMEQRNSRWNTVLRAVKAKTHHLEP", "assay": "Antagonist activity at TRPA1 (unknown origin) expressed in HEK293T cells assessed as inhibition of agonist induced channel current by whole-cell patch clamp analysis", "format": "cell-based"}, "[3]": {"target": "T1, Transient receptor potential cation channel subfamily V member 1", "assay": "Inhibition of TRPV1 (unknown origin)"}, "[4]": {"target": "T3, Transient receptor potential cation channel subfamily A member 1 (Mus musculus, UniProt Q8BLA8)", "T3 sequence (Q8BLA8 whole entry)": "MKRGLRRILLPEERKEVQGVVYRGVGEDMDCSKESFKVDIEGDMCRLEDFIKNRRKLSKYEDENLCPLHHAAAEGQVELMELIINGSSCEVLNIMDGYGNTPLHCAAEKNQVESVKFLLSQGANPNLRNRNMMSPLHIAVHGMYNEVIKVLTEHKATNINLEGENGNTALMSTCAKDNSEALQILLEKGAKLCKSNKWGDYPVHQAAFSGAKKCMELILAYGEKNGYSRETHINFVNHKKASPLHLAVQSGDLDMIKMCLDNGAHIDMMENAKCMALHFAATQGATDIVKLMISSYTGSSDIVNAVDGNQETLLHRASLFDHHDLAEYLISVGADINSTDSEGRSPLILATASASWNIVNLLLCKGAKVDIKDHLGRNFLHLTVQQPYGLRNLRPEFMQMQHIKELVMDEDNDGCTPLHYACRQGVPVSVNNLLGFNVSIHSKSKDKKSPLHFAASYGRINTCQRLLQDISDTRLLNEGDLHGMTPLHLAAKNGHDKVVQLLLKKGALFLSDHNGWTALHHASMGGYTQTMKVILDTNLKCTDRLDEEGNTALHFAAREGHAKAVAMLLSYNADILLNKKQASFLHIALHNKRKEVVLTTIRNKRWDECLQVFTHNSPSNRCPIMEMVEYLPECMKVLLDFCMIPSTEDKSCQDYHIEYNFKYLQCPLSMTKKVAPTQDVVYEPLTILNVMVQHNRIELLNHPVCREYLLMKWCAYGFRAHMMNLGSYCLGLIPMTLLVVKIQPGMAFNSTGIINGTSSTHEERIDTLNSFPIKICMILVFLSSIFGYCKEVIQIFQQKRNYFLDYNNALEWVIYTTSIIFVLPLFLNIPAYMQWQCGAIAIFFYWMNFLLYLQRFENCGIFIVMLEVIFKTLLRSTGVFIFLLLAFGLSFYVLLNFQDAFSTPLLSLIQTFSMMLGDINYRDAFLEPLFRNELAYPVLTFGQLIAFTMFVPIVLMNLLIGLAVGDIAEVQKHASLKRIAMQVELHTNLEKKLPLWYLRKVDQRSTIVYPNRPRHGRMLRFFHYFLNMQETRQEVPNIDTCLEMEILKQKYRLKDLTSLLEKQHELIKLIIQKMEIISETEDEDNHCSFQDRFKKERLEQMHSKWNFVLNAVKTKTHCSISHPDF", "assay": "Agonist activity at full length mouse TRPA1 transfected in HEK293F cells assessed as increase in Ca2+ influx by FLIPR calcium assay", "format": "cell-based"}, "[5]": {"target": "T4, Transient receptor potential cation channel subfamily A member 1 (Rattus norvegicus, UniProt Q6RI86)", "T4 sequence (Q6RI86 whole entry)": "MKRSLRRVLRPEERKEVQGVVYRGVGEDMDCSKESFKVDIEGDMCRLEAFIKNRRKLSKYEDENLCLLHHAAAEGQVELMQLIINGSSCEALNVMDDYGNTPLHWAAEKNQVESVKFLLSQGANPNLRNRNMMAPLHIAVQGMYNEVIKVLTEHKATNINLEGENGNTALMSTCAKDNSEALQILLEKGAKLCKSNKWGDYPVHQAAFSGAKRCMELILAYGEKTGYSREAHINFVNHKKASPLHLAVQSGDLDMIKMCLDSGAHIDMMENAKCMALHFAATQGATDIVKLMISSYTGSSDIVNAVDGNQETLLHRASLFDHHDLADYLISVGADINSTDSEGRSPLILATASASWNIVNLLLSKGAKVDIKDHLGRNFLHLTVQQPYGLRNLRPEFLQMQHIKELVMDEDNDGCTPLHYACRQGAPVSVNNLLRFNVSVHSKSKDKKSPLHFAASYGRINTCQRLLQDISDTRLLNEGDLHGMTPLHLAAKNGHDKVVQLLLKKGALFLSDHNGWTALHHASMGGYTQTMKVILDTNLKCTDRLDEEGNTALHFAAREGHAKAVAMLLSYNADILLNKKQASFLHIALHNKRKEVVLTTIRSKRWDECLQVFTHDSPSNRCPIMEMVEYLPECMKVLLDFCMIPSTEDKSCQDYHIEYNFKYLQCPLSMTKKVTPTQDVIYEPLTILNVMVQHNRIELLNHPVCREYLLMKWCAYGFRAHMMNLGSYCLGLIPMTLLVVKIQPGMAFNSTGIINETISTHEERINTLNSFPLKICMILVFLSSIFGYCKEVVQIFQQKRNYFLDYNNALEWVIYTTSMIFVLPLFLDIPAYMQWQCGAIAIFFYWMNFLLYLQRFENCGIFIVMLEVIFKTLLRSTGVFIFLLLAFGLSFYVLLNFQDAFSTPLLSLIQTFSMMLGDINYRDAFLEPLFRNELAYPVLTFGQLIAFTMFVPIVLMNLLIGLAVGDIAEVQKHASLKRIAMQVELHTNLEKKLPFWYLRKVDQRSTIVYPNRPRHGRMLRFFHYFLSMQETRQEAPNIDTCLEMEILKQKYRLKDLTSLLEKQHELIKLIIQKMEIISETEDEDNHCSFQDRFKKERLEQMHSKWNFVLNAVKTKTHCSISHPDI", "assay": "Agonist activity at rat TRPA1 transfected in HEK293F cells assessed as increase in Ca2+ influx by FLIPR calcium assay", "format": "cell-based"}, "[6]": {"target": "T2, Transient receptor potential cation channel subfamily A member 1", "assay": "Inhibition of TRPA1 (unknown origin)"}, "[7]": {"target": "T4, Transient receptor potential cation channel subfamily A member 1", "assay": "Agonist activity at rat recombinant TRPA1 expressed in HEK293 cells assessed as increase in intracellular calcium accumulation by Fluo4-AM based assay", "format": "cell-based"}, "[8]": {"target": "T2, Transient receptor potential cation channel subfamily A member 1", "assay": "Antagonist activity at human recombinant TRPA1 transfected in HEK293T cells assessed as increase in Ca2+ influx by FLIPR calcium assay", "format": "cell-based"}, "[9]": {"target": "T3, Transient receptor potential cation channel subfamily A member 1", "assay": "Antagonist activity at mouse TRPA1 expressed in HEK293F cells as increase in Ca2+ influx by FLIPR calcium assay", "format": "cell-based"}, "[10]": {"target": "T2, Transient receptor potential cation channel subfamily A member 1", "assay": "Agonist activity at TRPA1 (unknown origin)"}},
  "data": [
    {"smiles": "C[C@@H](N)[C@@H](O)C/C=C\\C/C=C\\C/C=C\\C/C=C\\C/C=C\\C/C=C\\CCCCCC[C@H](O)[C@@H](C)N", "note": "[LEUCETTAMOL A]", "values": [
      {"measurement": "EC50", "setting": "[1]", "value": 3.7, "unit": "µM"}
    ]},
    {"smiles": "C[n+]1cc2c3c(ccc2c2ccc4cc5c(cc4c21)OCO5)OCO3", "values": [
      {"measurement": "EC50", "setting": "[2]", "value": 0.09, "unit": "µM"}
    ]},
    {"smiles": "O=C(CCc1ccc2c(c1)OCO2)CC(O)CCCCCCc1ccccc1", "note": "(stereo unspecified)", "values": [
      {"measurement": "IC50", "setting": "[3]", "value": "> 10", "unit": "µM"}
    ]},
    {"smiles": "O=C(O)CCCCCCCCCO", "values": [
      {"measurement": "EC50", "setting": "[4]", "value": 510, "unit": "µM"}
    ]},
    {"smiles": "CC(C)c1cc(CCC(=O)CC(O)Cc2ccccc2)cc(C(C)C)c1O", "note": "(stereo unspecified)", "values": [
      {"measurement": "IC50", "setting": "[3]", "value": "> 50", "unit": "µM"}
    ]},
    {"smiles": "CCC/C=C1\\OC(=O)c2ccccc21", "note": "[Z-butylidenephthalide]", "values": [
      {"measurement": "EC50", "setting": "[4]", "value": 539, "unit": "µM"}
    ]},
    {"smiles": "Cn1cnc2ncn(Cc3nc([C@@H]4CO[C@@H](c5ccc(F)cc5)C4)no3)c(=O)c21", "values": [
      {"measurement": "IC50", "setting": "[5]", "value": 0.007, "unit": "µM"}
    ]},
    {"smiles": "O=C(O)/C=C/CCCCCCCO", "values": [
      {"measurement": "EC50", "setting": "[4]", "value": 422, "unit": "µM"}
    ]},
    {"smiles": "O=C1C[C@@H](c2ccc(O[C@@H]3O[C@H](CO)[C@@H](O)[C@H](O)[C@H]3O)cc2)Oc2cc(O)ccc21", "note": "[LIQUIRITIN]", "values": [
      {"measurement": "IC50", "setting": "[6]", "value": 16.2, "unit": "µM"}
    ]},
    {"smiles": "CC(C)CN1C(=O)/C(=C/C(=O)O)c2cccc(F)c21", "values": [
      {"measurement": "IC50", "setting": "[7]", "value": 0.51, "unit": "µM"}
    ]},
    {"smiles": "O=C(CCc1ccccc1)CC(O)Cc1ccccc1", "note": "(stereo unspecified)", "values": [
      {"measurement": "IC50", "setting": "[3]", "value": "> 50", "unit": "µM"},
      {"measurement": "IC50", "setting": "[6]", "value": 4.5, "unit": "µM"}
    ]},
    {"smiles": "O=C(CCc1ccccc1)CC(O)CCCCCCc1ccccc1", "note": "(stereo unspecified)", "values": [
      {"measurement": "IC50", "setting": "[3]", "value": "> 10", "unit": "µM"}
    ]},
    {"smiles": "O=NN1[C@@H]2c3ccccc3[C@H]1[C@@H](C(F)(F)F)C2C(F)(F)F", "note": "(stereo partly specified)", "values": [
      {"measurement": "EC50", "setting": "[8]", "value": 5.63, "unit": "µM"}
    ]},
    {"smiles": "CCC/C=C1\\OC(=O)C2=C1CCC=C2", "note": "[LIGUSTILIDE]", "values": [
      {"measurement": "EC50", "setting": "[9]", "value": 44, "unit": "µM"}
    ]},
    {"smiles": "COCCCN(C(=O)CCl)c1nc(-c2ccc(OC)cc2)cs1", "values": [
      {"measurement": "EC50", "setting": "[10]", "value": 0.00065, "unit": "µM"}
    ]}
  ]
}
